Measured values published in ChEMBL document CHEMBL1201861, “Genomics of Drug Sensitity in Cancer screening data, Wellcome Trust Sanger Institute”.

Key:
Test in all cases: cells
CTV-1 = format: functional, cell-based, Homo sapiens; conditions: Homo sapiens, CTV-1;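 note: growth inhibition of the cell line, read out with a cell viability assay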
Description: SANGER: Inhibition of human CTV-1 cell growth in a cell viability assay.

CW-2 = format: functional, cell-based, Homo sapiens; conditions: Homo sapiens, CW-2;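 note: growth inhibition of CW-2 cells, read out by a cell viability assay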
Description: SANGER: Inhibition of human CW-2 cell growth in a cell viability assay.

DB = format: functional, cell-based, Homo sapiens; conditions: Homo sapiens, DB
Description: SANGER: Inhibition of human DB cell growth in a cell viability assay.

DOHH-2 = format: functional, cell-based, Homo sapiens; conditions: Homo sapiens, DOHH-2;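 note: growth inhibition of human DOHH-2 cells, read out with a cell viability assay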
Description: SANGER: Inhibition of human DOHH-2 cell growth in a cell viability assay.

EKVX = format: functional, cell-based, Homo sapiens; conditions: Homo sapiens, EKVX;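 note: growth inhibition of human EKVX cells, read out with a cell viability assay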
Description: SANGER: Inhibition of human EKVX cell growth in a cell viability assay.

ES6 = format: functional, cell-based, Homo sapiens; conditions: Homo sapiens, ES6;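 note: growth inhibition of human ES6 cells, read out with a cell viability assay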
Description: SANGER: Inhibition of human ES6 cell growth in a cell viability assay.

ETK-1 = format: functional, cell-based, Homo sapiens; conditions: Homo sapiens, ETK-1;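 note: growth inhibition of human ETK-1 cells, read out with a cell viability assay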
Description: SANGER: Inhibition of human ETK-1 cell growth in a cell viability assay.

EW-18 = format: functional, cell-based, Homo sapiens; conditions: Homo sapiens, EW-18;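 note: growth inhibition of EW-18 cells, read out by a cell viability assay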
Description: SANGER: Inhibition of human EW-18 cell growth in a cell viability assay.

EOL1 = format: functional, cell-based, Homo sapiens; conditions: Homo sapiens, EOL1;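 note: growth inhibition of EoL-1 cells, read out by a cell viability assay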
Description: SANGER: Inhibition of human EoL-1-cell cell growth in a cell viability assay.

GCIY = format: functional, cell-based, Homo sapiens; conditions: Homo sapiens, GCIY;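 note: growth inhibition of the human GCIY cell line, read out by a cell viability assay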
Description: SANGER: Inhibition of human GCIY cell growth in a cell viability assay.

HT-144 = format: functional, cell-based, Homo sapiens; conditions: Homo sapiens, HT-144
Description: SANGER: Inhibition of human HT-144 cell growth in a cell viability assay.

IST-MEL1 = format: functional, cell-based, Homo sapiens; conditions: Homo sapiens, IST-MEL1;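 note: growth inhibition of the cell line, read out with a cell viability assay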
Description: SANGER: Inhibition of human IST-MEL1 cell growth in a cell viability assay.

JVM-3 = format: functional, cell-based, Homo sapiens; conditions: Homo sapiens, JVM-3;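 note: growth inhibition of human JVM-3 cells, read out with a cell viability assay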
Description: SANGER: Inhibition of human JVM-3 cell growth in a cell viability assay.

KGN = format: functional, cell-based, Homo sapiens; conditions: Homo sapiens, KGN;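 note: growth inhibition of KGN cells, read out with a cell viability assay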
Description: SANGER: Inhibition of human KGN cell growth in a cell viability assay.

KM12 = format: functional, cell-based, Homo sapiens; conditions: Homo sapiens, KM12;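 note: KM12 cell growth inhibition, read out with a cell viability assay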
Description: SANGER: Inhibition of human KM12 cell growth in a cell viability assay.

KNS-42 = format: functional, cell-based, Homo sapiens; conditions: Homo sapiens, KNS-42;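 note: growth inhibition of KNS-42 cells, read out with a cell viability assay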
Description: SANGER: Inhibition of human KNS-42 cell growth in a cell viability assay.

KY821 = format: functional, cell-based, Homo sapiens; conditions: Homo sapiens, KY821;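 note: growth inhibition of human KY821 cells, read out by a cell viability assay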
Description: SANGER: Inhibition of human KY821 cell growth in a cell viability assay.

LB2241-RCC = format: functional, cell-based, Homo sapiens; conditions: Homo sapiens, LB2241-RCC;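 note: cell viability assay measuring how strongly the cultured human renal carcinoma line is prevented from growing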
Description: SANGER: Inhibition of human LB2241-RCC cell growth in a cell viability assay.

Lu-65 = format: functional, cell-based, Homo sapiens; conditions: Homo sapiens, Lu-65;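 note: growth inhibition of Lu-65 cancer cells, read out by a cell viability assay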
Description: SANGER: Inhibition of human LU-65 cell growth in a cell viability assay.

MEG-01 = format: functional, cell-based, Homo sapiens; conditions: Homo sapiens, MEG-01;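 note: growth inhibition of MEG-01 cells, read out by a cell viability assay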
Description: SANGER: Inhibition of human MEG-01 cell growth in a cell viability assay.

MHH-PREB-1 = format: functional, cell-based, Homo sapiens; conditions: Homo sapiens, MHH-PREB-1;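 note: cell viability assay measuring inhibition of proliferation of human MHH-PREB-1 cells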
Description: SANGER: Inhibition of human MHH-PREB-1 cell growth in a cell viability assay.

MN-60 = format: functional, cell-based, Homo sapiens; conditions: Homo sapiens, MN-60;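 note: growth inhibition of the MN-60 cell line, determined with a cell viability assay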
Description: SANGER: Inhibition of human MN-60 cell growth in a cell viability assay.

MOLT-4 = format: functional, cell-based, Homo sapiens; conditions: Homo sapiens, MOLT-4;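 note: growth inhibition of MOLT-4 cells, determined with a cell viability readout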
Description: SANGER: Inhibition of human MOLT-4 cell growth in a cell viability assay.

MS-1 = format: functional, cell-based, Homo sapiens; conditions: Homo sapiens, MS-1;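 note: growth inhibition of MS-1 cells, read out by cell viability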
Description: SANGER: Inhibition of human MS-1 cell growth in a cell viability assay.

MV4-11 = format: functional, cell-based, Homo sapiens, MV-4-11; conditions: Homo sapiens, MV4-11;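 note: cell viability readout measuring growth inhibition of human MV-4-11 cells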
Description: SANGER: Inhibition of human MV-4-11 cell growth in a cell viability assay.

MZ1-PC = format: functional, cell-based, Homo sapiens; conditions: Homo sapiens, MZ1-PC;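 note: cell viability assay measuring growth inhibition of human MZ1-PC cells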
Description: SANGER: Inhibition of human MZ1-PC cell growth in a cell viability assay.

NB5 = format: functional, cell-based, Homo sapiens; conditions: Homo sapiens, NB5;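 note: growth inhibition of NB5 cells, read out as cell viability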
Description: SANGER: Inhibition of human NB5 cell growth in a cell viability assay.

NB6 = format: functional, cell-based, Homo sapiens; conditions: Homo sapiens, NB6;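 note: growth inhibition of NB6 cells, read out by a cell viability assay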
Description: SANGER: Inhibition of human NB6 cell growth in a cell viability assay.

NCI-H1092 = format: functional, cell-based, Homo sapiens; conditions: Homo sapiens, NCI-H1092;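 note: cell growth inhibition measured with a cell viability assay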
Description: SANGER: Inhibition of human NCI-H1092 cell growth in a cell viability assay.

NCI-H1155 = format: functional, cell-based, Homo sapiens; conditions: Homo sapiens, NCI-H1155;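 note: cell growth inhibition measured by a viability assay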
Description: SANGER: Inhibition of human NCI-H1155 cell growth in a cell viability assay.

NEC8 = format: functional, cell-based, Homo sapiens; conditions: Homo sapiens, NEC8;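 note: growth inhibition of human NEC8 cells, read out by a cell viability assay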
Description: SANGER: Inhibition of human NEC8 cell growth in a cell viability assay.

NKM-1 = format: functional, cell-based, Homo sapiens; conditions: Homo sapiens, NKM-1;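 note: growth inhibition of NKM-1 cells, read out with a cell viability assay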
Description: SANGER: Inhibition of human NKM-1 cell growth in a cell viability assay.

NOMO-1 = format: functional, cell-based, Homo sapiens; conditions: Homo sapiens, NOMO-1;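 note: growth inhibition of human NOMO-1 cells measured by a cell viability assay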
Description: SANGER: Inhibition of human NOMO-1 cell growth in a cell viability assay.

OMC-1 = format: functional, cell-based, Homo sapiens; conditions: Homo sapiens, OMC-1;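 note: growth inhibition of the OMC-1 cell line, measured by a cell viability assay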
Description: SANGER: Inhibition of human OMC-1 cell growth in a cell viability assay.

RKO = format: functional, cell-based, Homo sapiens; conditions: Homo sapiens, RKO;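 note: growth inhibition of human RKO cells, read out with a cell viability assay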
Description: SANGER: Inhibition of human RKO cell growth in a cell viability assay.

RXF 393 = format: functional, cell-based, Homo sapiens; conditions: Homo sapiens, RXF 393;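 note: growth inhibition of human RXF 393 cells, read out with a cell viability assay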
Description: SANGER: Inhibition of human RXF393 cell growth in a cell viability assay.

SF-268 = format: functional, cell-based, Homo sapiens; conditions: Homo sapiens, SF-268;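 note: growth inhibition of SF-268 cells determined with a cell viability assay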
Description: SANGER: Inhibition of human SF268 cell growth in a cell viability assay.

SK-N-FI = format: functional, cell-based, Homo sapiens; conditions: Homo sapiens, SK-N-FI;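 note: cell viability assay measuring growth inhibition of human SK-N-FI cells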
Description: SANGER: Inhibition of human SK-N-FI cell growth in a cell viability assay.

SW684 = format: functional, cell-based, Homo sapiens; conditions: Homo sapiens, SW684;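 note: growth inhibition of human SW684 cells, measured by a cell viability assay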
Description: SANGER: Inhibition of human SW684 cell growth in a cell viability assay.

SW982 = format: functional, cell-based, Homo sapiens; conditions: Homo sapiens, SW982;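 note: growth inhibition of SW982 cells, read out with a cell viability assay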
Description: SANGER: Inhibition of human SW982 cell growth in a cell viability assay.

8-MG-BA = format: functional, cell-based, Homo sapiens; conditions: Homo sapiens, 8-MG-BA;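 note: growth inhibition of 8-MG-BA cells, read out with a cell viability assay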
Description: SANGER: Inhibition of human 8-MG-BA cell growth in a cell viability assay.

BB65-RCC = format: functional, cell-based, Homo sapiens; conditions: Homo sapiens, BB65-RCC;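 note: growth inhibition of the cell line, measured with a cell viability assay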
Description: SANGER: Inhibition of human BB65-RCC cell growth in a cell viability assay.

BT-474 = format: functional, cell-based, Homo sapiens; conditions: Homo sapiens, BT-474
Description: SANGER: Inhibition of human BT-474 cell growth in a cell viability assay.

TE-12 = format: functional, cell-based, Homo sapiens; conditions: Homo sapiens, TE-12;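 note: growth inhibition of TE-12 cells, read out by a cell viability assay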
Description: SANGER: Inhibition of human TE-12 cell growth in a cell viability assay.

TGBC24TKB = format: functional, cell-based, Homo sapiens; conditions: Homo sapiens, TGBC24TKB;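 note: growth inhibition of human TGBC24TKB cells, read out with a cell viability assay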
Description: SANGER: Inhibition of human TGBC24TKB cell growth in a cell viability assay.

TGW = format: functional, cell-based, Homo sapiens; conditions: Homo sapiens, TGW;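 note: growth inhibition of human TGW cells, read out with a cell viability assay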
Description: SANGER: Inhibition of human TGW cell growth in a cell viability assay.

no-10 = format: functional, cell-based, Homo sapiens; conditions: Homo sapiens;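 note: growth inhibition of no-10 cells, read out with a cell viability assay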
Description: SANGER: Inhibition of human no-10 cell growth in a cell viability assay.

COLO-668 = format: functional, cell-based, Homo sapiens; conditions: Homo sapiens, COLO-668
Description: SANGER: Inhibition of human COLO-668 cell growth in a cell viability assay.

With `CC1(C)CNc2cc(NC(=O)c3cccnc3NCc3ccncc3)ccc21` [MOTESANIB] the IC50 (CTV-1) was > 2000 nM, the IC50 (CW-2) was > 2000 nM and the IC50 (DB) was > 2000 nM. The IC50 (DOHH-2) was > 2000 nM, the IC50 (EKVX) was > 2000 nM and the IC50 (ES6) was > 2000 nM. For the same compound, the IC50 (ETK-1) was > 2000 nM, the IC50 (EW-18) was > 2000 nM and the IC50 (EOL1) was < 7.81 nM. The IC50 (GCIY) was > 2000 nM, the IC50 (HT-144) was > 2000 nM and the IC50 (IST-MEL1) was > 2000 nM. The IC50 (JVM-3) was > 2000 nM, the IC50 (KGN) was > 2000 nM and the IC50 (KM12) was > 2000 nM. For the same compound, the IC50 (KNS-42) was > 2000 nM, the IC50 (KY821) was > 2000 nM and the IC50 (LB2241-RCC) was > 2000 nM. The IC50 (Lu-65) was > 2000 nM, the IC50 (MEG-01) was > 2000 nM and the IC50 (MHH-PREB-1) was > 2000 nM. For the same compound, the IC50 (MN-60) was > 2000 nM, the IC50 (MOLT-4) was > 2000 nM and the IC50 (MS-1) was > 2000 nM. For the same compound, the IC50 (MV4-11) was > 2000 nM, the IC50 (MZ1-PC) was > 2000 nM and the IC50 (NB5) was > 2000 nM. For the same compound, the IC50 (NB6) was > 2000 nM, the IC50 (NCI-H1092) was > 2000 nM and the IC50 (NCI-H1155) was > 2000 nM. For the same compound, the IC50 (NEC8) was > 2000 nM, the IC50 (NKM-1) was > 2000 nM and the IC50 (NOMO-1) was > 2000 nM. For the same compound, the IC50 (OMC-1) was > 2000 nM, the IC50 (RKO) was > 2000 nM and the IC50 (RXF 393) was > 2000 nM. For the same compound, the IC50 (SF-268) was > 2000 nM, the IC50 (SK-N-FI) was > 2000 nM and the IC50 (SW684) was > 2000 nM. The IC50 (SW982) was > 2000 nM, the IC50 (8-MG-BA) was > 2000 nM and the IC50 (BB65-RCC) was > 2000 nM. For the same compound, the IC50 (BT-474) was > 2000 nM, the IC50 (TE-12) was > 2000 nM and the IC50 (TGBC24TKB) was > 2000 nM. The IC50 (TGW) was > 2000 nM, the IC50 (no-10) was > 2000 nM and the IC50 (COLO-668) was > 2000 nM.
